Measured values reported in US8063096B2, “Spirocyclic 3-phenyl-3substituted-4-ketolactams and-lactones” (Bayer Cropscience AG, priority 2001, dated 2011).

Experiments:
Format in all cases: in vivo
[1] = system: Spodoptera frugiperda; test: Spodoptera frugiperda test; conditions: 500 ppm active compound, cabbage leaves dipped
Protocol: (§1) [table] To produce a suitable preparation of active compound, 1 part by weight of active compound is mixed with the stated amounts of solvent and emulsifier, and the concentrate is diluted with emulsifier-containing water to the desired concentration. Cabbage leaves (Brassica oleracea) are treated by being dipped into the preparation of active compound of the desired concentration and are populated with caterpillars of the army worm (Spodoptera frugiperda) while leaves are still moist. After the desired period of time, the kill in % is determined. 100% means that all caterpillars have been killed; 0% means that none of the caterpillars have been killed.

[2] = system: Tetranychus urticae; test: Tetranychus test (OP-resistant/dip treatment); conditions: 100 ppm active compound, bean plants dipped, OP-resistant
Protocol: [table] To produce a suitable preparation of active compound, 1 part by weight of active compound is mixed with the stated amounts of solvent and emulsifier, and the concentrate is diluted with emulsifier-containing water to the desired concentration. Bean plants (Phaseolus vulgaris) which are heavily infested by all stages of the greenhouse […] spider mite (Tetranychus urticae) are dipped into a preparation of active compound of the desired concentration. After the desired period of time, the activity in % is determined. 100% means that all spider mites have been killed; 0% means that none of the spider mites have been killed.

[3] = system: Alopecurus; test: Pre-emergence test, Alopecurus; conditions: pre-emergence/greenhouse; 250 g of ai/ha; after three weeks
Protocol: (§2) [table] To produce a suitable preparation of active compound, 1 part by weight of active compound is mixed with the stated amount of solvent, the stated amount of emulsifier is added and the concentrate is diluted with water to the desired concentration. Seeds of the test plants are sown in normal soil. After about 24 hours, the soil is sprayed with the preparation of active compound such that the particular amounts of active compound desired are applied per unit area. The concentration of the spray liquor is chosen such that the particular amounts of active compound desired are applied in 1000 l of water/ha. After three weeks, the degree of damage to the plants is rated in % damage in comparison to the development of the untreated control. The figures denote: • 0%=no effect (like untreated control) • 100%=total destruction

[4] = system: Avena fatua; test: Pre-emergence test, Avena fatua; conditions: pre-emergence/greenhouse; 250 g of ai/ha; after three weeks
Protocol: as §2

[5] = system: Echinochloa; test: Pre-emergence test, Echinochloa; conditions: pre-emergence/greenhouse; 250 g of ai/ha; after three weeks
Protocol: as §2

[6] = system: Setaria; test: Pre-emergence test, Setaria; conditions: pre-emergence/greenhouse; 250 g of ai/ha; after three weeks
Protocol: as §2

[7] = system: Amaranthus; test: Pre-emergence test, Amaranthus; conditions: pre-emergence/greenhouse; 250 g of ai/ha; after three weeks
Protocol: as §2

[8] = system: Sinapis; test: Pre-emergence test, Sinapis; conditions: pre-emergence/greenhouse; 250 g of ai/ha; after three weeks
Protocol: as §2

[9] = system: Alopecurus; test: Post-emergence test, Alopecurus; conditions: post-emergence/greenhouse; 250 g of ai/ha; after three weeks
Protocol: as §2, with “Test plants” for “Seeds”, “a height of 5-15 cm” for “the test plants”, “are” for “are sown in normal soil. After about 24 hours, the soil is”, “(=like” for “(like”

[10] = system: Avena fatua; test: Post-emergence test, Avena fatua; conditions: post-emergence/greenhouse; 250 g of ai/ha; after three weeks
Protocol: as §2, with “Test plants” for “Seeds”, “a height of 5-15 cm” for “the test plants”, “are” for “are sown in normal soil. After about 24 hours, the soil is”, “(=like” for “(like”

[11] = system: Echinochloa; test: Post-emergence test, Echinochloa; conditions: post-emergence/greenhouse; 250 g of ai/ha; after three weeks
Protocol: as §2, with “Test plants” for “Seeds”, “a height of 5-15 cm” for “the test plants”, “are” for “are sown in normal soil. After about 24 hours, the soil is”, “(=like” for “(like”

[12] = system: Setaria; test: Post-emergence test, Setaria; conditions: post-emergence/greenhouse; 250 g of ai/ha; after three weeks
Protocol: as §2, with “Test plants” for “Seeds”, “a height of 5-15 cm” for “the test plants”, “are” for “are sown in normal soil. After about 24 hours, the soil is”, “(=like” for “(like”

[13] = system: Amaranthus; test: Post-emergence test, Amaranthus; conditions: post-emergence/greenhouse; 250 g of ai/ha; after three weeks
Protocol: as §2, with “Test plants” for “Seeds”, “a height of 5-15 cm” for “the test plants”, “are” for “are sown in normal soil. After about 24 hours, the soil is”, “(=like” for “(like”

[14] = system: Sinapis; test: Post-emergence test, Sinapis; conditions: post-emergence/greenhouse; 250 g of ai/ha; after three weeks
Protocol: as §2, with “Test plants” for “Seeds”, “a height of 5-15 cm” for “the test plants”, “are” for “are sown in normal soil. After about 24 hours, the soil is”, “(=like” for “(like”

[15] = system: Meloidogyne incognita; test: Meloidogyne test (gall formation on lettuce roots); conditions: 20 ppm active compound, nematicidal action by gall formation
Protocol: [table] To produce a suitable preparation of active compound, 1 part by weight of active compound is mixed with the stated amounts of solvent and emulsifier, and the concentrate is diluted with water to the desired concentration. Vessels are filled with sand, solution of active compound, Meloidogyne incognita egg/larvae suspension and lettuce seeds. The lettuce seeds germinate and the plants develop. On the roots, galls develop. After the desired period of time, the nematicidal action is determined in % by the formation of galls. 100% means that no galls have been found; 0% means that the number of galls on the treated plants corresponds to that of the untreated control.

[16] = system: Myzus persicae; test: Myzus test (leaf dip, cabbage); conditions: 500 ppm active compound, cabbage leaves dipped
Protocol: as §1, with “oleracea) which are heavily infested by peach aphids (Myzus persicae)” for “oleracea)”, “concentration.” for “concentration and are populated with caterpillars of the army worm (Spodoptera frugiperda) while leaves are still moist.”, “aphids” for “caterpillars”

[17] = system: Sugar beet; test: Pre-emergence test, Sugar beet; conditions: pre-emergence/greenhouse; 250 g of ai/ha; after three weeks; crop
Protocol: as §2

[18] = system: Sugar beet; test: Post-emergence test, Sugar beet; conditions: post-emergence/greenhouse; 250 g of ai/ha; after three weeks; crop
Protocol: as §2, with “Test plants” for “Seeds”, “a height of 5-15 cm” for “the test plants”, “are” for “are sown in normal soil. After about 24 hours, the soil is”, “(=like” for “(like”

[19] = system: Aphis gossypii; test: Aphis gossypii test (leaf dip, cotton); conditions: 500 ppm active compound, cotton leaves dipped
Protocol: as §1, with “Cotton” for “Cabbage”, “(Gossypium hirsutum) which are heavily infested by the cotton aphids (Aphis gossypii)” for “(Brassica oleracea)”, “concentration.” for “concentration and are populated with caterpillars of the army worm (Spodoptera frugiperda) while leaves are still moist.”, “aphids” for “caterpillars”

[20] = system: Plutella xylostella; test: Plutella test; conditions: 500 ppm active compound, cabbage leaves dipped
Protocol: as §1, with “diamondback moth (Plutella xylostella)” for “army worm (Spodoptera frugiperda)”

[21] = system: Aphis gossypii; test: Test for persistency: Aphis gossypii (root-systemic action); conditions: 4 ppm in soil, cotton
Protocol: (§3) [table] To produce a suitable preparation of active compound, 1 part by weight of active compound is mixed with the stated amounts of solvent and emulsifier, and the concentrate is diluted with water to the desired concentration. The preparation of active compound is mixed intimately with the soil. The stated concentration refers to the amount of active compound per volume unit of soil (mg/l). The treated soil is filled into pots, and into these pots is planted cotton at the cotyledon stage. In this way, the active compound can be taken up from the soil into the roots of the plants and be transported into the leaves. After the stated number of days, cotton aphids (Aphis gossypii) are, in infection chambers, placed on the leaves. After the desired period of time, the kill in % is determined. 100% means that all aphids have been killed; 0% means that none of the aphids have been killed.

[22] = system: Myzus persicae; test: Test for persistency: Myzus persicae (root-systemic action); conditions: 4 ppm in soil, broad beans
Protocol: as §3, with “pre-germinated broad beans.” for “cotton at the cotyledon stage.”, “peach” for “cotton”, “(Myzus persicae)” for “(Aphis gossypii)”

[23] = system: Phaedon cochleariae; test: Phaedon larvae test; conditions: 500 ppm active compound, cabbage leaves dipped
Protocol: as §1, with “with larvae” for “with caterpillars”, “the mustard beetle (Phaedon cochleariae)” for “the army worm (Spodoptera frugiperda)”, “all beetle larvae” for “all caterpillars”, “the beetle larvae” for “the caterpillars”

## COC1CCC2(CC1)NC(=O)C(Cl)(c1c(C)cc(C)cc1Cl)C2=O (centres unmarked) [Ex. I-1-a-8]
[1]
  Kill rate in % after 7d: 100%
[2]
  Kill rate in % after 7d: 100%
[3]
  % damage, Alopecurus: 100%
[4]
  % damage, Avena fatua: 100%
[5]
  % damage, Echinochloa: 100%
[6]
  % damage, Setaria: 100%
[7]
  % damage, Amaranthus: 100%
[8]
  % damage, Sinapis: 100%
[9]
  % damage, Alopecurus: 100%
[10]
  % damage, Avena fatua: 90%
[11]
  % damage, Echinochloa: 100%
[12]
  % damage, Setaria: 100%
[13]
  % damage, Amaranthus: 90%
[14]
  % damage, Sinapis: 80%

## CCc1cc(Cl)cc(CC)c1C1(Cl)C(=O)NC2(CCC(OC)CC2)C1=O (centres unmarked) [Ex. I-1-a-43]
[15]
  Kill rate in % after 14d: 95%
[16]
  Kill rate in % after 6d: 90%
[3]
  % damage, Alopecurus: 95%
[4]
  % damage, Avena fatua: 100%
[5]
  % damage, Echinochloa: 100%
[6]
  % damage, Setaria: 100%
[17]
  % damage, Sugar beet: 0%
[9]
  % damage, Alopecurus: 90%
[10]
  % damage, Avena fatua: 100%
[11]
  % damage, Echinochloa: 100%
[12]
  % damage, Setaria: 100%
[14]
  % damage, Sinapis: 70%
[18]
  % damage, Sugar beet: 0%

## Cc1cc(Br)cc(C)c1C1(Cl)C(=O)NC2(CCOCC2)C1=O (centres unmarked) [Ex. I-1-c-3]
[19]
  Kill rate in % after 6d: 90%
[20]
  Kill rate in % after 7d: 100%
[21]; infection after 7 d
  Kill rate in % after 7d: 100%
[21]; infection after 21 d
  Kill rate in % after 7d: 98^ %
[21]; infection after 35 d
  Kill rate in % after 7d: 98^ %
[22]; infection after 7 d
  Kill rate in % after 7d: 99%
[22]; infection after 21 d
  Kill rate in % after 7d: 100%
[22]; infection after 35 d
  Kill rate in % after 7d: 99%

## CCc1cc(Br)cc(C)c1C1(Cl)C(=O)NC2(CCC(OC)CC2)C1=O (centres unmarked) [Ex. I-1-a-26]
[23]
  Kill rate in % after 7d: 100%
[9]
  % damage, Alopecurus: 100%
[10]
  % damage, Avena fatua: 100%
[11]
  % damage, Echinochloa: 100%
[12]
  % damage, Setaria: 100%
[14]
  % damage, Sinapis: 80%
[18]
  % damage, Sugar beet: 0%

## Cc1cc(Br)cc(Cl)c1C1(Cl)C(=O)NC2(CCOCC2)C1=O (centres unmarked) [Ex. I-1-c-2]
[20]
  Kill rate in % after 7d: 100%
[21]; infection after 7 d
  Kill rate in % after 7d: 100%
[21]; infection after 21 d
  Kill rate in % after 7d: 98^ %
[21]; infection after 35 d
  Kill rate in % after 7d: 98^ %
[22]; infection after 7 d
  Kill rate in % after 7d: 100%
[22]; infection after 21 d
  Kill rate in % after 7d: 100%
[22]; infection after 35 d
  Kill rate in % after 7d: 99%

## COC1CCC2(CC1)NC(=O)C(Cl)(c1cc(C)ccc1Br)C2=O (centres unmarked) [Ex. I-1-a-28]
[19]
  Kill rate in % after 6d: 90%
[23]
  Kill rate in % after 7d: 100%
[20]
  Kill rate in % after 7d: 100%

## COC1CCC2(CC1)NC(=O)C(Cl)(c1c(C)cc(Br)cc1Cl)C2=O (centres unmarked) [Ex. I-1-a-10]
[16]
  Kill rate in % after 6d: 99%
[3]
  % damage, Alopecurus: 100%
[4]
  % damage, Avena fatua: 90%
[5]
  % damage, Echinochloa: 100%
[6]
  % damage, Setaria: 100%
[7]
  % damage, Amaranthus: 80%
[8]
  % damage, Sinapis: 90%
[9]
  % damage, Alopecurus: 90%
[10]
  % damage, Avena fatua: 90%
[11]
  % damage, Echinochloa: 100%
[12]
  % damage, Setaria: 100%
[13]
  % damage, Amaranthus: 80%
[14]
  % damage, Sinapis: 80%

## CCc1cc(Br)cc(Cl)c1C1(Cl)C(=O)NC2(CCC(OC)CC2)C1=O (centres unmarked) [Ex. I-1-a-44]
[16]
  Kill rate in % after 6d: 98%
[3]
  % damage, Alopecurus: 100%
[4]
  % damage, Avena fatua: 100%
[5]
  % damage, Echinochloa: 100%
[6]
  % damage, Setaria: 100%
[8]
  % damage, Sinapis: 80%
[17]
  % damage, Sugar beet: 0%
[9]
  % damage, Alopecurus: 95%
[10]
  % damage, Avena fatua: 100%
[11]
  % damage, Echinochloa: 100%
[12]
  % damage, Setaria: 100%
[14]
  % damage, Sinapis: 70%
[18]
  % damage, Sugar beet: 0%

## CCc1cc(Br)cc(C)c1C1(Cl)C(=O)NC2(CCCOC2)C1=O (centres unmarked) [Ex. I-1-b-12]
[3]
  % damage, Alopecurus: 95%
[4]
  % damage, Avena fatua: 100%
[5]
  % damage, Echinochloa: 100%
[6]
  % damage, Setaria: 100%
[17]
  % damage, Sugar beet: 0%
[9]
  % damage, Alopecurus: 90%
[10]
  % damage, Avena fatua: 100%
[11]
  % damage, Echinochloa: 100%
[12]
  % damage, Setaria: 100%
[18]
  % damage, Sugar beet: 0%

## COC1CCC2(CC1)NC(=O)C(Cl)(c1ccc(C)cc1Cl)C2=O (centres unmarked) [Ex. I-1-a-3]
[1]
  Kill rate in % after 7d: 100%
